Results on one compound are retold here after patent publication US12303594B2, “Antimicrobial and anti-inflammatory compositions” (The Texas A&M University System, priority 2015, dated 2025).

Data set [1] concerns methicillin-resistant Staphylococcus aureus (strain MRSA 0646). In words: Minimum inhibitory concentration (MIC). It is filed as cell-based. The settings on record: alone, read-out: MIC. The method, then:
(§1) The final concentrations of aztreonam, ceftazidime and vancomycin were 0.06, 0.13, 0.25, 0.5, 1, 2, 4, 8, 16, 32, 64, and 128 μg/ml. The plates were incubated overnight at 37° C. […] Each triplicate was performed at least twice.

Data set [2] relates to Pseudomonas aeruginosa (strain PA HP3). The experiment in a line: Minimum inhibitory concentration (MIC). Format: cell-based. The note with it: alone. The method, then:
as §1

Another data set has as its system SA 25-05. In words: Endpoint time-kill synergy study. The note with it: ibuprofen with sub-MIC antimicrobial vs antimicrobial alone, 6 hours.
A short description of data set [3]: Particle size distribution by laser light diffraction. Format: physicochemical. The method, then:
The particle size distribution (PSD) D10, D50, and D90 values for each sample were defined as particle diameters at the 10th, 50th, and 90th percentile and the span value was calculated according to Equation 2: […]
PSD analysis by laser light diffraction: PSDs were determined using a Sympatec Helos equipped with a Cuvette module (System-Partikel-Technik GmbH, Clausthal-Zellerfeld, Germany). Data were analyzed using the Sympatec WINDOX software. For each measurement, per a previously optimized method, about 2 mg of powder was dispersed in 0.5 mL of 0.1% (w/v) sodium dodecyl sulfate in water and the sample was sonicated for 5 min. […] After the reference measurement, 50 μL aliquots of the sonicated suspension were added to the cell to achieve optical concentrations of between 10 to 20% and the total of six measurements were performed on each sample. Formulations immediately following air-jet milling (25IBU10.1, 25IBU10.2) and after 6 months (25IBU10.1**, 25IBU10.2**) stored at RT (IBU10.1), or at −80° C. (IBU10.2) were analyzed.
PSDs were determined using a Sympatec Helos equipped with a Cuvette module (System-Partikel-Technik GmbH, Clausthal-Zellerfeld, Germany). Data were analyzed using the Sympatec WINDOX software. For each measurement per a previously optimized method, about 2 mg of powder was dispersed in 0.5 mL of 0.1% (w/v) SLS in water and the sample was sonicated for 5 minutes. […] After the reference measurement, 50 μL aliquots of the sonicated suspension were added to the cell to achieve optical concentrations of between 10 to 20% and the total of six measurements were performed on each sample. Analyzed samples included: unprocessed IBU and IND as well as the milled samples from different sections of the jet mill including the tube after grinding chamber (bfC), the cyclone (C), the collection vessel adapter (D), the collection bag adapter (E), the collection vessel (G) and the collection bag (H) for each run. The span value was calculated according to Equation 2.
To estimate the overall D10, D50, and D90 values for the combined recovered fractions associated with each run, stacked bar charts were graphed and analyzed to determine the yield normalized cumulative PSDs. Each stacked bar corresponded to a particle size bin and its height corresponded to the volume density distributions' weighted averages by the yield for each segment of the jet mill. The D10, D50, and D90 values for the normalized cumulative PSDs were the particle sizes corresponding to the 10, 50, and 90% area of the stacked bar chart respectively.
Tween 20 and sodium lauryl sulfate (SLS) were purchased from Fisher Scientific (Fisher Scientific, Pittsburgh, PA, USA), and dH2O was used for preparing solutions. […] A reference measurement was done in 0.1% (v/v) Span 85 in light mineral oil. After a reference measurement, aliquots of […] of sonicated suspension were added to achieve optical concentrations from 10 to 20% for a total of six measurements.
Furthermore, D10, D50, and D90 values for each sample were defined as particle diameters at the 10th, 50th, and 90th percentile of the PSD. Span was calculated according to Equation 2. Normalized cumulative PSDs were composed of yield-normalized distributions, where they were depicted as stacked bar charts. D10, D50, and D90 values for normalized cumulative PSDs were calculated by approximating particle sizes associated with 10%, 50%, and 90% area of the stacked bar chart.

Where [4] appears, read: collection bag fraction or stock, Table 8.
The mark [5] stands for this setting: fraction used for testing (IBU collection bag, IND cyclone) or unprocessed powder.

Molecules are shown by their SMILES.

Experimental for SA 25-05: Afterwards, the inoculums were plated to determine their CFU/ml. Synergy from the combination was determined by a ≥2×log10 decrease in CFU/ml when compared to antimicrobial treatment alone.

Turning to `CC(C)Cc1ccc(C(C)C(=O)O)cc1` (centres unmarked) [ibuprofen, 2(4-isobutylphenyl)propanoic acid], the MIC in data set [1] is more than 128 µg/mL. This compound yielded an MIC in data set [2] of more than 128 µg/mL. In addition, the “killing efficacy of ceftazidime and gentamicin (CFU/ml)” value with SA 25-05 was “significantly increased the killing efficacy of both ceftazidime and gentamicin”. In data set [3] (setting [4]), this compound showed a D50 of 48.0 μm, a D90 of 106.7 μm and a Span of 1.8. In data set [3] (setting [5]), the Span came to 1.84 and the “median size (d50)” value came to 48 μm.
